Measured values reported in article PMC9657394, “Purification and Characterization of Bot33: A Non-Toxic Peptide from the Venom of Buthus occitanus tunetanus Scorpion” (Molecules, 2022).

How the values were obtained:
hKv1.3 = assay: Two-electrode voltage-clamp, Kv1.3 expressed in Xenopus laevis oocytes; format: cell-based, mammalian; settings: 1 µM, 250-ms depolarization to 0 mV from −90 mV, pH 7.4, 18–22 °C
Excerpt: (§1) For the expression of Kv channels (mammalian rKv1.1, rKv1.2, hKv1.3, rKv1.4, rKv1.5, rKv1.6, and Drosophila Shaker IR) in Xenopus laevis oocytes, the linearized plasmids were transcribed using the T7 or SP6 mMESSAGE-mMACHINE transcription kit (Ambion, Carlsbad, CA, USA). The harvesting of stage V–VI oocytes from anesthetized female Xenopus laevis frog was previously described in compliance with the regulations of the European Union (EU) concerning the welfare of laboratory animals as declared in Directive 2010/63/EU. The use of X. laevis oocytes was approved by the Animal Ethics Committee of the KU Leuven with the license number P186/2019. Oocytes were injected with 50 nl of cRNA at a concentration of 1 ng/nl using a microinjector (Drummond Scientific, Broomall, PA, USA). […]
(§2) Two-electrode voltage-clamp recordings were performed at room temperature (18–22 °C) using a Geneclamp 500 amplifier (Molecular Devices, Downingtown, PA, USA) controlled by a pClamp data acquisition system (Axon Instruments, Union City, CA, USA). Whole-cell currents from oocytes were recorded 1–4 days after injection. […] All data were analyzed using pClamp Clampfit 10.1 (Molecular Devices, Downingtown, PA, USA) and Origin 7.5 software (Originlab, Northampton, MA, USA).

Shaker IR = assay: Two-electrode voltage-clamp, Shaker IR expressed in Xenopus laevis oocytes; format: cell-based, Drosophila; settings: 1 µM, 250-ms depolarization to 0 mV from −90 mV, pH 7.4, 18–22 °C
Excerpt: as §1, §2

mice = test system: mice; design: method as in PMID 1730708; settings: ref [22]; cited from earlier work

Substance	effect on Kv1.3 current (hKv1.3)	effect on Shaker IR current (Shaker IR)	LD50 (mice)
ChTx: control toxin tested on Kv1.3 and Shaker IR	completely inhibited the current	completely inhibited the current	–
KTX: toxin with LD50 ≈ 24 ng/20 g mice	–	–	≈ 24 ng/20 g mice
